Data reported in PubChem BioAssay AID743508 (Broad Institute, 2014).
Activity calls are given as the source filed them. How the calls were made is not given here.

Target: Drosophila melanogaster bursicon receptor LGR2 (rickets)
Experiment: LGR2 bursicon receptor antagonists, dose response, cell-based, HEK293, CRE-luciferase, beta-gal normalized, dry powder, set 2 (AID 743508)
Settings: HEK293 LGR2 CRE-luciferase cAMP reporter, antagonist

| IC50 | Compound |
| --- | --- |
| < 35 µM | C[C@H](CO)N1C[C@H](C)[C@H](CN(C)C(=O)Nc2ccc(F)cc2)OCCCC[C@H](C)Oc2ccc(NC(=O)C3CCCCC3)cc2C1=O |
| < 35 µM | C[C@H](CO)N1C[C@H](C)[C@H](CN(C)C(=O)Nc2cccc3ccccc23)OCCCC[C@H](C)Oc2ccc(NC(=O)C3CCCCC3)cc2C1=O |
| > 35 µM (inactive) | C[C@@H]1CN([C@@H](C)CO)C(=O)c2cc(NC(=O)c3ccncc3)ccc2O[C@@H](C)CCCCO[C@H]1CN(C)C(=O)Nc1cccc2ccccc12 |
| > 35 µM (inactive) | COc1ccc(NC(=O)Nc2ccc3c(c2)C(=O)N([C@H](C)CO)C[C@H](C)[C@H](CN(C)CC2CCCCC2)OCCCC[C@H](C)O3)cc1 |
| > 35 µM (inactive) | C[C@H](CO)N1C[C@H](C)[C@H](CN(C)C(=O)Cc2ccccc2)OCCCC[C@H](C)Oc2ccc(NC(=O)Nc3ccc(C(F)(F)F)cc3)cc2C1=O |
| < 35 µM | C[C@H]1CCCCO[C@@H](CN(C)C(=O)Nc2ccc3c(c2)OCO3)[C@@H](C)CN([C@@H](C)CO)C(=O)c2cc(NC(=O)NC3CCCCC3)ccc2O1 |
| > 35 µM (inactive) | C[C@H]1CCCCO[C@H](CN(C)C(=O)Nc2cccc3ccccc23)[C@@H](C)CN([C@@H](C)CO)C(=O)c2cc(NS(=O)(=O)c3cn(C)cn3)ccc2O1 |
| < 35 µM | C[C@H](CO)N1C[C@H](C)[C@H](CN(C)C(=O)Nc2ccc3c(c2)OCO3)OCCCC[C@H](C)Oc2ccc(NC(=O)C3CCCCC3)cc2C1=O |
| < 35 µM | C[C@H](CO)N1C[C@H](C)[C@H](CN(C)C(=O)Nc2ccc(F)cc2)OCCCC[C@H](C)Oc2ccc(NC(=O)Nc3ccc(F)cc3)cc2C1=O |
| < 35 µM | C[C@H](CO)N1C[C@H](C)[C@H](CN(C)C(=O)Nc2ccc(F)cc2)OCCCC[C@H](C)Oc2ccc(NC(=O)Nc3ccccc3)cc2C1=O |
| < 35 µM | C[C@H]1CCCCO[C@@H](CN(C)S(=O)(=O)c2ccc(Cl)cc2)[C@@H](C)CN([C@@H](C)CO)C(=O)c2cc(NC(=O)NC3CCCCC3)ccc2O1 |
| < 35 µM | COc1ccc(S(=O)(=O)N(C)C[C@@H]2OCCCC[C@H](C)Oc3ccc(NS(=O)(=O)c4ccc(F)cc4)cc3C(=O)N([C@@H](C)CO)C[C@@H]2C)cc1 |
| < 35 µM | C[C@H]1CCCCO[C@@H](CN(C)C(=O)Nc2ccc(C(F)(F)F)cc2)[C@@H](C)CN([C@@H](C)CO)C(=O)c2cc(NC(=O)CCC(F)(F)F)ccc2O1 |
| > 35 µM (inactive) | Cc1noc(C)c1S(=O)(=O)Nc1ccc2c(c1)C(=O)N([C@H](C)CO)C[C@H](C)[C@H](CN(C)C(=O)Nc1ccc(F)cc1)OCCCC[C@@H](C)O2 |
| < 35 µM | C[C@H](CO)N1C[C@H](C)[C@H](CN(C)C(=O)Nc2ccc(F)cc2)OCCCC[C@H](C)Oc2ccc(NC(=O)NC3CCCCC3)cc2C1=O |
| < 35 µM | C[C@H](CO)N1C[C@H](C)[C@H](CN(C)C(=O)Nc2ccccc2)OCCCC[C@H](C)Oc2ccc(NC(=O)Nc3ccc4c(c3)OCO4)cc2C1=O |
| < 35 µM | C[C@H](CO)N1C[C@H](C)[C@H](CN(C)C(=O)Nc2ccccc2)OCCCC[C@H](C)Oc2ccc(NC(=O)CCC(F)(F)F)cc2C1=O |
| > 35 µM (inactive) | COc1ccc(S(=O)(=O)Nc2ccc3c(c2)C(=O)N([C@@H](C)CO)C[C@H](C)[C@@H](CN(C)C(=O)Nc2cccc4ccccc24)OCCCC[C@H](C)O3)cc1 |
| > 35 µM (inactive) | CC(C)NC(=O)Nc1ccc2c(c1)C(=O)N([C@H](C)CO)C[C@@H](C)[C@H](CN(C)S(C)(=O)=O)OCCCC[C@H](C)O2 |

| IC50 | Compound |
| --- | --- |
| < 35 µM | COc1ccc(NC(=O)N(C)C[C@@H]2OCCCC[C@H](C)Oc3ccc(NC(=O)C4CCCCC4)cc3C(=O)N([C@H](C)CO)C[C@@H]2C)cc1 |
| > 35 µM (inactive) | Cc1ccc(S(=O)(=O)Nc2ccc3c(c2)C(=O)N([C@H](C)CO)C[C@@H](C)[C@H](CN(C)S(=O)(=O)c2cccs2)OCCCC[C@@H](C)O3)cc1 |
| < 35 µM | C[C@H](CO)N1C[C@H](C)[C@H](CN(C)C(=O)Nc2ccccc2)OCCCC[C@H](C)Oc2ccc(NC(=O)C3CCCCC3)cc2C1=O |
| < 35 µM | COc1ccc(S(=O)(=O)N(C)C[C@@H]2OCCCC[C@H](C)Oc3ccc(NS(=O)(=O)c4ccc(Cl)cc4)cc3C(=O)N([C@@H](C)CO)C[C@@H]2C)cc1 |
| > 35 µM (inactive) | C[C@@H]1CN([C@@H](C)CO)C(=O)c2cc(NS(C)(=O)=O)ccc2O[C@@H](C)CCCCO[C@@H]1CN(C)Cc1ccc(C(F)(F)F)cc1 |
| < 35 µM | C[C@H](CO)N1C[C@H](C)[C@H](CN(C)C(=O)Nc2ccc(C(F)(F)F)cc2)OCCCC[C@H](C)Oc2ccc(NC(=O)CCC(F)(F)F)cc2C1=O |
| < 35 µM | C[C@H]1CCCCO[C@@H](CN(C)C(=O)Nc2ccc(F)cc2)[C@@H](C)CN([C@@H](C)CO)C(=O)c2cc(NC(=O)C3CCCCC3)ccc2O1 |
| > 35 µM (inactive) | COc1ccc(S(=O)(=O)Nc2ccc3c(c2)C(=O)N([C@H](C)CO)C[C@H](C)[C@H](CN(C)S(=O)(=O)c2ccc(F)cc2)OCCCC[C@@H](C)O3)cc1 |
| < 35 µM | COc1ccc(NC(=O)N(C)C[C@@H]2OCCCC[C@H](C)Oc3ccc(NC(=O)NC4CCCCC4)cc3C(=O)N([C@H](C)CO)C[C@@H]2C)cc1 |
| < 35 µM | C[C@H]1CCCCO[C@@H](CN(C)C(=O)Nc2ccccc2)[C@@H](C)CN([C@@H](C)CO)C(=O)c2cc(NC(=O)NC3CCCCC3)ccc2O1 |
| < 35 µM | C[C@H](CO)N1C[C@H](C)[C@H](CN(C)C(=O)Nc2ccccc2)OCCCC[C@H](C)Oc2ccc(NC(=O)NC3CCCCC3)cc2C1=O |
| < 35 µM | C[C@H](CO)N1C[C@H](C)[C@H](CN(C)C(=O)Nc2ccc3c(c2)OCO3)OCCCC[C@H](C)Oc2ccc(NC(=O)NC3CCCCC3)cc2C1=O |
| < 35 µM | C[C@H](CO)N1C[C@H](C)[C@H](CN(C)C(=O)Nc2ccc(C(F)(F)F)cc2)OCCCC[C@H](C)Oc2ccc(NC(=O)NC3CCCCC3)cc2C1=O |
| < 35 µM | C[C@H](CO)N1C[C@H](C)[C@H](CN(C)C(=O)Nc2cccc3ccccc23)OCCCC[C@H](C)Oc2ccc(NC(=O)c3ccccc3)cc2C1=O |
| > 35 µM (inactive) | COc1ccc(S(=O)(=O)Nc2ccc3c(c2)C(=O)N([C@@H](C)CO)C[C@@H](C)[C@H](CN(C)C(=O)Nc2cccc4ccccc24)OCCCC[C@H](C)O3)cc1 |
| < 35 µM | C[C@H](CO)N1C[C@H](C)[C@H](CN(C)C(=O)Nc2cccc3ccccc23)OCCCC[C@H](C)Oc2ccc(NC(=O)CCC(F)(F)F)cc2C1=O |
| < 35 µM | C[C@H](CO)N1C[C@H](C)[C@H](CN(C)C(=O)Nc2cccc3ccccc23)OCCCC[C@H](C)Oc2ccc(NC(=O)NC3CCCCC3)cc2C1=O |
| < 35 µM | C[C@@H]1CCCCO[C@H](CN(C)CC2CCCCC2)[C@H](C)CN([C@H](C)CO)C(=O)c2cc(NS(=O)(=O)c3ccccc3)ccc2O1 |
| < 35 µM | C[C@H](CO)N1C[C@H](C)[C@H](CN(C)C(=O)Nc2ccccc2)OCCCC[C@H](C)Oc2ccc(NC(=O)Nc3ccccc3)cc2C1=O |
